Test results reported in US10189863B2, “5,6-dihydro-4H-benzo[b]thieno-[2,3-d]azepine derivatives” (PULMOCIDE LIMITED, priority 2014, dated 2019).

Legend:
[1] = Cell viability: resazurin assay; assay type: cell-based, human; details: human, HEp2 cells
Method in brief: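 HEp2 cells in 5% FBS DMEM exposed to compounds (0.5% DMSO final) for 5 days at 37 °C/5% CO2, then resazurin added for 6 h; fluorescence read at 545/590 nm. Percent viability loss calculated versus 0.5% DMSO vehicle, with increases shown as negative values; CC50 taken from concentration-response curves where appropriate.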

RSV A2 strain = assay: Assessment of RSV induced CPE in HEp2 cells (RSV A2 strain); assay type: cell-based; details: human respiratory syncytial virus, HEp2 cells; for IC50: HEp-2, 120 h, 1 MOI, 5 days, read-out: RSV A2 CPE IC50; for inhibition at 0.1 µg/mL / inhibition at 0.01 µg/mL: HEp-2; for inhibition at 0.1 µg/mL: Inhibition (%) at 0.1 μg/mL, read-out: RSV A2 CPE % Inhibition; for inhibition at 0.01 µg/mL: Inhibition (%) at 0.01 μg/mL
Method in brief: (§1)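 HEp2 cells were infected at MOI 1 with RSV A2 or RSV B Washington, with compound added at the same time (0.5% DMSO final). Incubation was 5 days for A2 and 6 days for B, then viability was read by resazurin fluorescence (545/590 nm) after 6 h. IC50, IC75 and IC90 came from concentration-response curves.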

RSV B Washington strain = assay: Assessment of RSV induced CPE in HEp2 cells (RSV B Washington strain); assay type: cell-based; details: human respiratory syncytial virus, HEp2 cells; for IC50: HEp-2, 144 h, 1 MOI, 6 days, read-out: RSV B CPE IC50; for inhibition at 1 µg/mL: HEp-2, Inhibition (%) at 1 μg/mL, read-out: RSV B CPE % Inhibition
Method in brief: as §1

SMILES | IC50 (RSV A2 strain) [nM] | IC50 (RSV B Washington strain) [nM] | CC50 at 5 days [1] [nM] | inhibition at 0.1 µg/mL (RSV A2 strain) [%] | inhibition at 1 µg/mL (RSV B Washington strain) [%] | inhibition at 0.01 µg/mL (RSV A2 strain) [%]
Cc1cnc(N2CC3(CCOCC3)C2)c(C(=O)Nc2ccc(C(=O)N3CCc4cc(C(=O)Nc5c(F)cc(F)cc5F)sc4-c4ccccc43)cc2)c1 [Example 48, 6-(4-(5-methyl-2-(7-oxa-2-azaspiro[3.5]nonan-2-yl)nicotinamido)benzoyl)-N-(2,4,6-trifluorophenyl)-5,6-dihydro-4H-benzo[b]thieno[2,3-d]azepine-2-carboxamide] | 0.14 | 1.5 | > 13600 | 100 | 100 | 
Cc1ccc(C(=O)Nc2ccc(C(=O)N3CCc4cc(C(=O)Nc5c(F)cccc5F)sc4-c4ccccc43)cc2)c(N2CC3(CCOCC3)C2)n1 [Example 49, N-(2,6-difluorophenyl)-6-(4-(6-methyl-2-(7-oxa-2-aza-spiro[3.5]nonan-2-yl)nicotinamido)benzoyl)-5,6-dihydro-4H-benzo[b]thieno[2,3-d]azepine-2-carboxamide] | 0.13 | 1.3 | > 13900 | 100 | 100 | 
Cc1ccc(C(=O)Nc2ccc(C(=O)N3CCc4cc(C(=O)Nc5c(F)cc(F)cc5F)sc4-c4ccccc43)cc2)c(N2CC3(CCOCC3)C2)n1 [Example 50, 6-(4-(6-methyl-2-(7-oxa-2-azaspiro[3.5]nonan-2-yl)nicotinamido)benzoyl)-N-(2,4,6-trifluorophenyl)-5,6-dihydro-4H-benzo[b]thieno[2,3-d]azepine-2-carboxamide] | 0.13 | 1.7 | > 13600 | 100 | 100 | 
Cc1cnc(N2CC3(CCOCC3)C2)c(C(=O)Nc2ccc(C(=O)N3CCc4cc(C(=O)Nc5c(F)cccc5C#N)sc4-c4ccccc43)cc2)c1 [Example 51, N-(2-cyano-6-fluorophenyl)-6-(4-(5-methyl-2-(7-oxa-2-azaspiro[3.5]nonan-2-yl)nicotinamido)benzoyl)-5,6-dihydro-4H-benzo[b]thieno[2,3-d]azepine-2-carboxamide] | 1.1 | 10.1 | > 13800 | 98 | 99 | 
Cc1cnc(N2CC3(CCOCC3)C2)c(C(=O)Nc2ccc(C(=O)N3CCc4cc(C(=O)Nc5c(O)cccc5F)sc4-c4ccccc43)cc2)c1 [Example 52, N-(2-fluoro-6-hydroxyphenyl)-6-(4-(5-methyl-2-(7-oxa-2-azaspiro[3.5]nonan-2-yl)nicotinamido)benzoyl)-5,6-dihydro-4H-benzo[b]thieno[2,3-d]azepine-2-carboxamide] | 0.067 | 3.3 | > 13900 | 96 | 100 | 
COc1cccc(F)c1NC(=O)c1cc2c(s1)-c1ccccc1N(C(=O)c1ccc(NC(=O)c3cc(C)cnc3N3CC4(CCOCC4)C3)cc1)CC2 [Example 53, N-(2-fluoro-6-methoxyphenyl)-6-(4-(5-methyl-2-(7-oxa-2-azaspiro[3.5]nonan-2-yl)nicotinamido)benzoyl)-5,6-di-hydro-4H-benzo[b]thieno[2,3-d]azepine-2-carboxamide] | 0.23 | 14.6 | > 13700 | 94 | 96 | 
Cc1cnc(N2CC3(CCOCC3)C2)c(C(=O)Nc2ccc(C(=O)N3CCc4cc(C(=O)Nc5c(F)cccc5OCCO)sc4-c4ccccc43)cc2)c1 [Example 54, N-(2-fluoro-6-(2-hydroxyethoxy)phenyl)-6-(4-(5-methyl-2-(7-oxa-2-azaspiro[3.5]nonan-2-yl)nicotinamido)benzoyl)-5,6-dihydro-4H-benzo[b]thieno[2,3-d]azepine-2-carboxamide] | 1.5 | 89.8 | > 13100 |  | 100 | 100

More lines, main results first:

IC50 (RSV A2 strain) [nM] | IC50 (RSV B Washington strain) [nM] | SMILES | CC50 at 5 days [1] [nM] | inhibition at 0.1 µg/mL (RSV A2 strain) [%] | inhibition at 1 µg/mL (RSV B Washington strain) [%] | inhibition at 0.01 µg/mL (RSV A2 strain) [%]
0.15 | 16.2 | COCCOc1cccc(F)c1NC(=O)c1cc2c(s1)-c1ccccc1N(C(=O)c1ccc(NC(=O)c3cc(C)cnc3N3CC4(CCOCC4)C3)cc1)CC2 [Example 55, N-(2-fluoro-6-(2-methoxyethoxy)phenyl)-6-(4-(5-methyl-2-(7-oxa-2-azaspiro[3.5]nonan-2-yl)nicotinamido)benzoyl)-5,6-dihydro-4H-benzo[b]thieno[2,3-d]azepine-2-carboxamide] | > 12900 |  | 100 | 100
0.14 | 4.1 | Cc1cnc(N2CC3(CCOCC3)C2)c(C(=O)Nc2ccc(C(=O)N3CCc4cc(C(=O)Nc5c(C)cccc5Cl)sc4-c4ccccc43)cc2)c1 [Example 56, N-(2-chloro-6-methylphenyl)-6-(4-(5-methyl-2-(7-oxa-2-azaspiro[3.5]nonan-2-yl)nicotinamido)benzoyl)-5,6-dihydro-4H-benzo[b]thieno[2,3-d]azepine-2-carboxamide] | > 13700 | 94 | 89 | 
0.13 | 1.4 | Cc1cnc(N2CC3(CCOCC3)C2)c(C(=O)Nc2ccc(C(=O)N3CCc4cc(C(=O)Nc5c(Cl)cccc5Cl)sc4-c4ccccc43)cc2)c1 [Example 57, N-(2,6-dichlorophenyl)-6-(4-(5-methyl-2-(7-oxa-2-aza-spiro[3.5]nonan-2-yl)nicotinamido)benzoyl)-5,6-dihydro-4H-benzo[b]thieno[2,3-d]azepine-2-carboxamide] | > 13300 | 91 | 74 | 
0.32 | 8.6 | Cc1cnc(N2CC3(CCOCC3)C2)c(C(=O)Nc2ccc(C(=O)N3CCc4cc(C(=O)Nc5c(C)cccc5CO)sc4-c4ccccc43)cc2)c1 [Example 58, N-(2-(hydroxymethyl)-6-methylphenyl)-6-(4-(5-methyl-2-(7-oxa-2-azaspiro[3.5]nonan-2-yl)nicotinamido)benzoyl)-5,6-dihydro-4H-benzo[b]thieno[2,3-d]azepine-2-carboxamide] | > 13700 |  | 100 | 100
0.23 | 13.8 | Cc1cnc(N2CC3(CCOCC3)C2)c(C(=O)Nc2ccc(C(=O)N3CCc4cc(C(=O)Nc5c(F)cc(F)cc5F)sc4-c4ccccc43)c(F)c2)c1 [Example 59, 6-(2-fluoro-4-(5-methyl-2-(7-oxa-2-azaspiro[3.5]nonan-2-yl)nicotinamido)benzoyl)-N-(2,4,6-trifluorophenyl)-5,6-di-hydro-4H-benzo[b]thieno[2,3-d]azepine-2-carboxamide] | > 13200 | 100 | 93 | 
0.14 | 9.5 | CCc1cnc(N2CC3(CCOCC3)C2)c(C(=O)Nc2ccc(C(=O)N3CCc4cc(C(=O)Nc5c(C)cccc5F)sc4-c4ccccc43)cc2)c1 [Example 60, 6-(4-(5-ethyl-2-(7-oxa-2-azaspiro[3.5]nonan-2-yl)nicotinamido)benzoyl)-N-(2-fluoro-6-methylphenyl)-5,6-dihydro-4H-benzo[b]thieno[2,3-d]azepine-2-carboxamide] | > 13700 | 92 | 100 | 
0.13 | 4.1 | CCc1cnc(N2CC3(CCOCC3)C2)c(C(=O)Nc2ccc(C(=O)N3CCc4cc(C(=O)Nc5c(F)cccc5Cl)sc4-c4ccccc43)cc2)c1 [Example 61, N-(2-chloro-6-fluorophenyl)-6-(4-(5-ethyl-2-(7-oxa-2-azaspiro[3.5]nonan-2-yl)nicotinamido)benzoyl)-5,6-dihydro-4H-benzo[b]thieno[2,3-d]azepine-2-carboxamide] | > 13300 | 97 | 100 | 
0.13 | 0.9 | Cc1cnc(N2CC3(CCOCC3)C2)c(C(=O)Nc2ccc(C(=O)N3CCc4cc(C(=O)Nc5c(C)cccc5C#N)sc4-c4ccccc43)cc2)c1 [Example 62, N-(2-cyano-6-methylphenyl)-6-(4-(5-methyl-2-(7-oxa-2-azaspiro[3.5]nonan-2-yl)nicotinamido)benzoyl)-5,6-dihydro-4H-benzo[b]thieno[2,3-d]azepine-2-carboxamide] | > 13800 |  | 100 | 89
0.058 | 1.6 | Cc1cnc(N2CC3(CCOCC3)C2)c(C(=O)Nc2ccc(C(=O)N3CCc4cc(C(=O)Nc5c(F)cccc5C(F)(F)F)sc4-c4ccccc43)cc2)c1 [Example 63, N-(2-fluoro-6-(trifluoromethyl)phenyl)-6-(4-(5-methyl-2-(7-oxa-2-azaspiro[3.5]nonan-2-yl)nicotinamido)benzoyl)-5,6-dihydro-4H-benzo[b]thieno[2,3-d]azepine-2-carboxamide] | > 13000 |  | 100 | 95
0.25 | 1.1 | Cc1cnc(N2CC3(CCOCC3)C2)c(C(=O)Nc2ccc(C(=O)N3CCc4cc(C(=O)Nc5c(C)cccc5C)sc4-c4ccccc43)cc2)c1 [Example 64, N-(2,6-dimethylphenyl)-6-(4-(5-methyl-2-(7-oxa-2-aza-spiro[3.5]nonan-2-yl)nicotinamido)benzoyl)-5,6-dihydro-4H-benzo[b]thieno[2,3-d]azepine-2-carboxamide] | > 14000 |  | 100 | 100
